According to article PMC8480326, “Chemoenzymatic glycan-selective remodeling of a therapeutic lysosomal enzyme with high-affinity M6P-glycan ligands. Enzyme substrate specificity is the name of the game” (Chemical Science, 2021):
“Also recorded” adds a separate entry of the source. Each block holds one substance with its values, some of them ahead of it.

Key:
[1] = biological target: CI-MPR; design: method as in PMID 30843882; conditions: rhGAA with higher M6P content; read-out: apparent KD; cited from earlier work
[2] = biological target: T1, Recombinant human IGF-II R (CI-MPR) (Homo sapiens, UniProt P11717); assay: SPR binding to immobilized CI-MPR; conditions: SPR, immobilized CI-MPR
T1 construct: purchased R&D Systems
Method: Surface Plasmon Resonance (SPR) Measurements. SPR measurements were performed on a Biacore T200 instrument (GE Healthcare). Recombinant human IGF-II R (CI-MPR) was purchased
from R&D Systems. Approximately 7000 resonance units (RU) of CI-MPR was immobilized on a
CM5 sensor chip in a sodium acetate buffer (25 μg/mL, pH 4.0) at 25 °C, using the amine coupling kit
provided by the manufacturer. Mannose 6-phosphate containing glycopeptides or glycoproteins were
determined at 25 °C under a flow rate of 10 μL/min. HBS-P+ buffer (10 mM HEPES, 150 mM NaCl,
0.05% surfactant P20, pH 7.4) was used as sample buffer and running buffer. Association was
measured for 3 min and dissociation for 10 min at same flow rate (10 μL/min). The surface
and glycoprotein analytes flowed over an immobilized chip with 2-fold serial dilution of the highest
concentration of 4 μM (for glycopeptides) or 1 μM (for RNase B) or 250 nM (for rhGAA).
analyses were performed by global fitting of the binding data to a 1:1 Langmuir binding model using

[3] = system: GAA-deficient multinucleated myotubes (KO); assay: Western blot (anti-human GAA) of treated muscle cell lysates; format: cell-based, mouse; conditions: 5 μM for 24 hours, Western blot with anti-human GAA antibodies
Method: (§1) The available anti-human GAA antibodies detected a strong non-specific band in mouse muscle cells as indicated by its presence in both WT and GAA-deficient cell (Fig. 4b, right panel). Previous studies have shown that the mature 76 kDa form of GAA has a higher affinity and activity towards glycogen.[31,50]
Fig. 4 Effect of the therapeutic enzymes in GAA KO (KO) myotubes. […] GAA activity in cell lysates of wild type (WT) myotubes was measured for comparison. The KO cells were treated for 24 hours with 5 μM of each of the recombinant enzyme; n = 5 for each condition. Statistical significance was determined by one-way ANOVA; graph represents mean ± SD. *p <0.05; ****p <0.0001; ns – statistically insignificant. (b) Western blot analysis (with anti-human GAA antibodies) of muscle cell lysates treated with the recombinant enzymes; GAPDH was used as loading control. […]
(§2) Measurement of cell-associated GAA activity. The GAA activity in the cells was measured by using 4-methylumbelliferyl-α-D-glucopyranoside (4-MU- α-glucopyranoside; Sigma-Aldrich #M9766) as the fluorogenic GAA substrate as described.[13] […] Fluorescence was measured on a multi-label plate reader (TECAN, SPARK 10M) at 360 nm excitation/465 nm emission.
(§3) Measurement of the glycogen content. The glycogen content was measured as the amount of glucose released after glycogen digestion with Aspergillus Niger amyloglucosidase (Sigma-Aldrich). […]

[4] = system: GAA-deficient multinucleated myotubes (KO); assay: Cell-associated GAA activity in treated GAA KO myotubes; format: cell-based, mouse; conditions: 5 μM for 24 hours, n = 5, versus untreated cells
Text: To evaluate the effect of the Endo-A (69) and Endo-F3 (70) remodeled rhGAA in the disease-relevant muscle cells, we used GAA-deficient multinucleated myotubes (KO) as an in vitro cell model system for Pompe disease.[48,49] These myotubes are formed from conditionally immortalized myoblasts derived from the GAA knockout mice; unlike myoblasts, the differentiated myotubes replicate the primary defect of the disease, namely, the enlargement of glycogen-laden lysosomes.
as §1, with “glycogen.[31,50] […]” for “glycogen.[31,50]”
BIAcore T200 evaluation software. rhGAA enzyme activity assay. The enzyme activity was assayed by using the substrate 4-methylumbelliferyl-α-D-glucopyranoside (4-MUG) (Sigma-Aldrich) which generates fluorescence on digestion.[9, 10] […] The reaction was monitored at 0 min, 1 min, 2 min, 5 min, 10 min and 15 min by taking 20 μL of aliquot and add ing 50 μL of stop buffer (100 mM glycine/NaOH, pH 11). Fluorescence was measured by a spectrophotometer with 355 nm excitation and 460 nm emission, and the error bar was based on three independent assays. […]

[5] = system: GAA-deficient multinucleated myotubes (KO); assay: Western blot of lysosomal (LAMP1) and endosomal (Rab5) markers; format: cell-based, mouse; conditions: 5 μM for 24 hours
[6] = system: GAA-deficient multinucleated myotubes (KO); assay: Lamp1 immunostaining of myotubes (lysosomal swelling); format: cell-based, mouse; conditions: 5 μM for 24 hours, confocal images
Text: The effect of the Endo-A and Endo-F3 remodeled rhGAA was confirmed by immunostaining of myotubes with Lamp1. […] The therapeutic potential of the M6P glycan-remodeled rhGAA in lysosomal glycogen reduction and reversal of muscle pathology will be further evaluated in Pompe disease animal models in future studies.
Fig. 5 Effect of the therapeutic enzymes on lysosomal swelling and glycogen content in GAA KO (KO) myotubes. […] Nuclei are stained with DAPI (blue). Bar: 10 μm. (b) Graph illustrates glycogen levels measured in cell lysates from WT, untreated- and treated KO myotubes. […] Statistical significance was determined by one-way ANOVA; graph represents mean ± SD. **p <0.01; ****p <0.0001; ns – statistically insignificant.
as §2, §3

T1 sequence (P11717 41-2491): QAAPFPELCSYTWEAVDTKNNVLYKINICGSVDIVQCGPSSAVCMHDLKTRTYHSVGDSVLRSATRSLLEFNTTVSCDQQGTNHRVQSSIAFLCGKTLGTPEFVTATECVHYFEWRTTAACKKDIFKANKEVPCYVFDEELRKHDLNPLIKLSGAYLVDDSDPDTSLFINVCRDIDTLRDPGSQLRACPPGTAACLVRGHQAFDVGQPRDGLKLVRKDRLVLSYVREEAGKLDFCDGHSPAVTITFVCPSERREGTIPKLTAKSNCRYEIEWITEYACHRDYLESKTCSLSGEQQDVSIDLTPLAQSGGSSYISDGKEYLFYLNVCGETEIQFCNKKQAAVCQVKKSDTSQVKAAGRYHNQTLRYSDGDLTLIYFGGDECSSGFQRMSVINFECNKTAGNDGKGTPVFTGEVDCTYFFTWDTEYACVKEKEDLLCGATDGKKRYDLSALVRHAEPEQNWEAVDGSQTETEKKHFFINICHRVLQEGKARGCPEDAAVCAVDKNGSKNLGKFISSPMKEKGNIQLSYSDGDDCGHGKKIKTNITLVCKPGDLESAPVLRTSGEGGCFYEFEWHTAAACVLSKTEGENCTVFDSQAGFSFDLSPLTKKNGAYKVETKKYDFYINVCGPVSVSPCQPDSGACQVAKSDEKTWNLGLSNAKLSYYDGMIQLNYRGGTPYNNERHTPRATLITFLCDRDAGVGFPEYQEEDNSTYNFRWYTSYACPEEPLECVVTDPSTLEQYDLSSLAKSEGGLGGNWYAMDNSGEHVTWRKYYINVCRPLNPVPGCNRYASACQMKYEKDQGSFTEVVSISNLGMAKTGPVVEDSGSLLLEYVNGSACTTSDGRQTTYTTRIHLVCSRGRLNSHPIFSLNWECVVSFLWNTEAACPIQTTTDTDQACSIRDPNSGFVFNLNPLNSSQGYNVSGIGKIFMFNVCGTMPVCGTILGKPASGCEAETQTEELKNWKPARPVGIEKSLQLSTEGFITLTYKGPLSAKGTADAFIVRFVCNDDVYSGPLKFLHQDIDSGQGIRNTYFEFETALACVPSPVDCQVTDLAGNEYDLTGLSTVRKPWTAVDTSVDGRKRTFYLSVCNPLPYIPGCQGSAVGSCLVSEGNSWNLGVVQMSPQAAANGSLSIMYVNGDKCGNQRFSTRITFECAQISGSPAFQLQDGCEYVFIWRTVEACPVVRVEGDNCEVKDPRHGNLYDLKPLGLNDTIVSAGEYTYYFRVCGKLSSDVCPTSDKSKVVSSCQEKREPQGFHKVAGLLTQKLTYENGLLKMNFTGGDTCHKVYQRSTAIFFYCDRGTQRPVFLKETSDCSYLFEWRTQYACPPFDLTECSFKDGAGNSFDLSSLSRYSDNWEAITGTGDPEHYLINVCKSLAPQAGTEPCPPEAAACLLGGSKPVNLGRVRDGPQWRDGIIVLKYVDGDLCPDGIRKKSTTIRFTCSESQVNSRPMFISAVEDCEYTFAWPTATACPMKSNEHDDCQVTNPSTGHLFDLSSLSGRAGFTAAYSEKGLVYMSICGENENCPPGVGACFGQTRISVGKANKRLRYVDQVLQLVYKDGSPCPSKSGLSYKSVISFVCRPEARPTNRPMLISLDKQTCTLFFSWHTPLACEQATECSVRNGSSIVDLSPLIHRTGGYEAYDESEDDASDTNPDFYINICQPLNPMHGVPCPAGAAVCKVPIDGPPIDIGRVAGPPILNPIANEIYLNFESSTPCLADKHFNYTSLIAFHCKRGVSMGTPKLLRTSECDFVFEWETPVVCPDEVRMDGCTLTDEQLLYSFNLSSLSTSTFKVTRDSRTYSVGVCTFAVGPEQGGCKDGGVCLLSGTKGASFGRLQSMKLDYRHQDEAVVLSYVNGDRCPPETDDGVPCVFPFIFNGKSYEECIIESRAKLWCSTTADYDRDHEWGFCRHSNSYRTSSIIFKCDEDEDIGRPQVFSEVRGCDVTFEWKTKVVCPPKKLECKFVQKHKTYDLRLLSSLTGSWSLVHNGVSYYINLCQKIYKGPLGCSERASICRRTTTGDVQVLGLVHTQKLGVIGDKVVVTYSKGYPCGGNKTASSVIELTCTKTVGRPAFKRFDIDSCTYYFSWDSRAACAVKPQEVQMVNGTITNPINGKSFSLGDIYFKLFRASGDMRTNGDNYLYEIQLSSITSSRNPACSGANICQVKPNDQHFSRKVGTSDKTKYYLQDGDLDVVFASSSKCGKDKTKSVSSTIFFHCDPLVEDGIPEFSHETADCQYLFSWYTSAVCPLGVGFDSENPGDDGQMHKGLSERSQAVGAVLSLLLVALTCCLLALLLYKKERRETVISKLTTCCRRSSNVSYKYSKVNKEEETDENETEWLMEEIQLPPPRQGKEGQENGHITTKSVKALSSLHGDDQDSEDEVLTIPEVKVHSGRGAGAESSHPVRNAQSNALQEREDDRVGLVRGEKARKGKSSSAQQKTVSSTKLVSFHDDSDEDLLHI

Substance: ATB200: a novel rhGAA carrying a higher M6P content
Kd [1]: 2 to 4 nM

Kd ([2]; 25 °C, average of three independent experiments): 14 ± 3.7 nM
Substance: Lumizyme: recombinant human acid α-glucosidase (rhGAA; Lumizyme, Sanofi Genzyme) used for treatment of Pompe disease
processed, mature lysosomal form of rhGAA (76 kDa) in cells [3]: barely detectable
GAA activity in cell lysates [4]: only a slight increase (statistically insignificant)
levels of endosomal (Rab5) and lysosomal (LAMP1) markers [5]: remained the same as in the untreated GAA-deficient cells
enlarged LAMP1-positive lysosomes [6]: Enlarged lysosomes were seen; also recorded: can be detected

affinity for CI-MPR (in words) [2]: lost its binding affinity
Substance: deglycosylated rhGAA: rhGAA treated with wild-type Endo-A to remove the high-mannose N-glycans including the M6P glycans
